C[C@@H]1CC[C@@]2(OC1)O[C@H]1C[C@H]3[C@@H]4CC=C5C[C@@H](O)CC[C@]5(C)[C@H]4CC[C@]3(C)[C@H]1[C@@H]2C
Details	solubility (mole fraction)
in ethanol, 289.15 K	0.00106
in ethanol, 301.05 K	0.00147
in ethanol, 305.75 K	0.0017
in ethanol, 312.35 K	0.00188
in ethanol, 312.65 K	0.00196
in ethanol, 316.65 K	0.00227
in ethanol, 320.25 K	0.00253
in ethanol, 322.35 K	0.00269
in ethanol, 324.05 K	0.0029
in ethanol, 325.65 K	0.00306
in ethanol, 327.65 K	0.00324
in ethanol, 329.05 K	0.00338
in ethanol, 331.25 K	0.00353
in ethanol, 332.35 K	0.00372
in ethanol, 334.15 K	0.00388
in isobutanol, 305.15 K	0.00236
in isobutanol, 306.95 K	0.00266
in isobutanol, 307.65 K	0.00296
in isobutanol, 308.65 K	0.00332
in isobutanol, 310.15 K	0.00364
in isobutanol, 311.65 K	0.00416
in isobutanol, 312.95 K	0.00456
in isobutanol, 313.85 K	0.00499
in isobutanol, 314.85 K	0.0054
in isobutanol, 316.15 K	0.00582
in isobutanol, 317.65 K	0.00625
in isobutanol, 319.65 K	0.00672
in isobutanol, 320.65 K	0.0071
in isobutanol, 322.15 K	0.00754
in isobutanol, 323.85 K	0.00797
in isobutanol, 325.15 K	0.00836
in isobutanol, 326.95 K	0.00884
in isobutanol, 328.65 K	0.00931
in isobutanol, 330.65 K	0.00979
in isooctanol, 296.55 K	0.0073
in isooctanol, 298.55 K	0.00809
in isooctanol, 299.75 K	0.0091
in isooctanol, 303.15 K	0.00992
in isooctanol, 305.65 K	0.0106
in isooctanol, 307.15 K	0.0114
in isooctanol, 309.25 K	0.012
in isooctanol, 311.85 K	0.0129
in isooctanol, 314.65 K	0.0139
in isooctanol, 315.95 K	0.0146
in isooctanol, 318.25 K	0.0154
in isooctanol, 321.05 K	0.0163
in isooctanol, 323.25 K	0.017
in isooctanol, 324.95 K	0.0177
in isooctanol, 326.55 K	0.0185
in isooctanol, 327.45 K	0.0192
in isooctanol, 329.75 K	0.0199
in n-butanol, 295.75 K	0.00469
in n-butanol, 298.15 K	0.0052
in n-butanol, 300.15 K	0.00572
in n-butanol, 304.65 K	0.00624
in n-butanol, 307.65 K	0.00659
in n-butanol, 309.65 K	0.00694
in n-butanol, 311.55 K	0.00731
in n-butanol, 312.65 K	0.00767
in n-butanol, 314.25 K	0.00805
in n-butanol, 315.85 K	0.0084
in n-butanol, 317.35 K	0.00914
in n-butanol, 319.15 K	0.00956
in n-butanol, 320.65 K	0.00996
in n-butanol, 323.45 K	0.0105
in n-butanol, 325.45 K	0.011
in n-butanol, 326.45 K	0.0114
in n-butanol, 328.45 K	0.012
in n-pentanol, 290.75 K	0.00406
in n-pentanol, 292.75 K	0.00455
in n-pentanol, 296.15 K	0.00507
in n-pentanol, 299.65 K	0.00566
in n-pentanol, 301.55 K	0.00615
in n-pentanol, 304.15 K	0.00663
in n-pentanol, 307.65 K	0.00722
in n-pentanol, 309.85 K	0.00775
in n-pentanol, 312.45 K	0.00838
in n-pentanol, 314.45 K	0.00888
in n-pentanol, 316.75 K	0.00933
in n-pentanol, 317.35 K	0.00978
in n-pentanol, 318.75 K	0.0105
in n-pentanol, 320.65 K	0.0111
in n-pentanol, 322.65 K	0.0116
in n-pentanol, 324.15 K	0.0123
in n-pentanol, 325.75 K	0.0128
in n-pentanol, 327.15 K	0.0134
in n-pentanol, 329.15 K	0.0139
in n-propanol, 290.15 K	0.00163
in n-propanol, 292.95 K	0.00205
in n-propanol, 295.55 K	0.00243
in n-propanol, 301.75 K	0.00278
in n-propanol, 305.25 K	0.00307
in n-propanol, 307.95 K	0.0034
in n-propanol, 310.95 K	0.0039
in n-propanol, 314.75 K	0.00424
in n-propanol, 318.15 K	0.00473
in n-propanol, 320.05 K	0.00506
in n-propanol, 322.75 K	0.00542
in n-propanol, 326.35 K	0.0059
in n-propanol, 327.85 K	0.00622
in n-propanol, 329.25 K	0.00663
in n-propanol, 330.65 K	0.00696
in n-propanol, 332.65 K	0.0073
in tert-butanol, 302.15 K	0.000811
in tert-butanol, 304.65 K	0.00108
in tert-butanol, 306.65 K	0.00134
in tert-butanol, 308.15 K	0.00151
in tert-butanol, 310.65 K	0.00175
in tert-butanol, 312.15 K	0.00198
in tert-butanol, 313.65 K	0.00223
in tert-butanol, 314.15 K	0.00244
in tert-butanol, 315.95 K	0.00274
in tert-butanol, 317.75 K	0.00307
in tert-butanol, 321.15 K	0.00343
in tert-butanol, 323.15 K	0.00368
in tert-butanol, 325.15 K	0.00392
in tert-butanol, 326.65 K	0.00427
in tert-butanol, 328.65 K	0.00467
in tert-butanol, 330.75 K	0.00497
in tert-butanol, 332.45 K	0.00529
